These results are taken from paper PMC5333991 (Journal of biomolecular screening, 2009).

Where only a bound is given, the exact number is not on record here.

Series [1] deals with CYP3A4 (Homo sapiens, UniProt P08684). In words: fluorogenic CYP450 inhibition assay. The series is classed as biochemical.
The target in series [2] is CYP2C9 (Homo sapiens, UniProt P11712). As to the kind of experiment: in vitro.
Sequence of CYP2C9 (P11712 whole entry): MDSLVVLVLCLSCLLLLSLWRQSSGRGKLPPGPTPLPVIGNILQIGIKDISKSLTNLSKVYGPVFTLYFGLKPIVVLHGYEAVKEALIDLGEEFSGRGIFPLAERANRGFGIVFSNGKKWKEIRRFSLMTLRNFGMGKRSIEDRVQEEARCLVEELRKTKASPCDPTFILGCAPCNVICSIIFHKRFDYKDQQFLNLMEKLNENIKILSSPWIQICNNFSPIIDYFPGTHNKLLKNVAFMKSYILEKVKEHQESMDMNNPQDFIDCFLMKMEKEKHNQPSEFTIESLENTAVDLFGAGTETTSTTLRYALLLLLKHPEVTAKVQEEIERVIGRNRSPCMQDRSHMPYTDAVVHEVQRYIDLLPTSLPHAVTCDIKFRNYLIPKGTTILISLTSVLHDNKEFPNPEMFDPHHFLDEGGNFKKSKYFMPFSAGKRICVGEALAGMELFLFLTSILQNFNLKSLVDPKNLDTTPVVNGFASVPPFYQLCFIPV
Sequence of CYP2C9 (P16435 2-677 partner): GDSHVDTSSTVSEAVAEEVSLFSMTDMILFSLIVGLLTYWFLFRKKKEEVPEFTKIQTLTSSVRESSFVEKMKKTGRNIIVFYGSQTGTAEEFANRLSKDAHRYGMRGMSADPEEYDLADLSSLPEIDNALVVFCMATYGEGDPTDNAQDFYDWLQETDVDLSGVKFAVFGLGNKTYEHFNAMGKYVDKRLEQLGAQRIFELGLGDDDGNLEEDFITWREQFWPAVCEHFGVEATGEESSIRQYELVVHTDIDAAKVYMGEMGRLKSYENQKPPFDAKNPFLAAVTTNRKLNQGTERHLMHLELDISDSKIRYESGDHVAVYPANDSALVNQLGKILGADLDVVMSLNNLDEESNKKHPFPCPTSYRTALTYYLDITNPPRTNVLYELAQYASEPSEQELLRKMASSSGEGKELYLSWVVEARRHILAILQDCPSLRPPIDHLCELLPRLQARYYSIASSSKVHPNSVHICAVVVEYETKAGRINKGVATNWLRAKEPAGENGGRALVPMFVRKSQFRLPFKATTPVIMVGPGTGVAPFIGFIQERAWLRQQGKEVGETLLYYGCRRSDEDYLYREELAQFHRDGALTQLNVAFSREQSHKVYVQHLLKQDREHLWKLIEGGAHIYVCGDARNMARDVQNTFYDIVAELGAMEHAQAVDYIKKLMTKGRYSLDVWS

Sequence of CYP3A4 (P08684 2-503): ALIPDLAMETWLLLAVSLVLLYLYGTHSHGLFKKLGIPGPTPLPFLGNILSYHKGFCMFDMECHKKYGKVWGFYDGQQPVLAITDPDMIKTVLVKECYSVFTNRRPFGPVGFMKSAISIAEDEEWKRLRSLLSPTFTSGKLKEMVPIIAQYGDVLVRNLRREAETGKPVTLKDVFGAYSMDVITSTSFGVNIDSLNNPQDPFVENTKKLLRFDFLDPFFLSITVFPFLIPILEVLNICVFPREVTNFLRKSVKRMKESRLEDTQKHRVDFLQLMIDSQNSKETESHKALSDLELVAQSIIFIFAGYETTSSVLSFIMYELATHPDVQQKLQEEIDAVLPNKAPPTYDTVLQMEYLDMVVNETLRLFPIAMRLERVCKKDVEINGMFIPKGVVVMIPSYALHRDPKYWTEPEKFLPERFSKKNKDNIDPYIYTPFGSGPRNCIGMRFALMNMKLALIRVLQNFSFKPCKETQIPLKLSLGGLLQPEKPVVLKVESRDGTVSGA
Sequence of CYP3A4 (P16435 2-677 partner): as the sequence (P16435 2-677 partner) above

On to `CC(=O)N1CCN(c2ccc(OC[C@H]3CO[C@](Cn4ccnc4)(c4ccc(Cl)cc4Cl)O3)cc2)CC1` (relative stereo) [ketoconazole], for which the activity at 0.1 µM in series [1] is below 40%. Take `Nc1ccc(S(=O)(=O)Nc2ccnn2-c2ccccc2)cc1` [sulfaphenazole]: in series [2], the activity at 0.25 µM is around 50%.
